According to ChEMBL document CHEMBL1127117 (Bioorg Med Chem Lett, 1993):
The source made the active and inactive calls. No cut-off for these calls is given here.

Key:
[1] = test system: Mus musculus; assay: Compound was tested for inhibitory activity in oral mouse cholesterol biosynthesis assay at the dose of 24 mg/Kg; NA means not active; format: functional, organism-based
[2] = test system: Mus musculus; assay: Compound was tested for inhibitory activity in oral mouse cholesterol biosynthesis assay at the dose of 24 mg/Kg; format: functional
[3] = test system: Mus musculus; assay: Compound was tested for inhibitory activity in oral mouse cholesterol biosynthesis assay at the dose of 40 mg/Kg; format: functional
[4] = organism: Mus musculus; assay: Compound was tested for inhibitory activity in oral mouse cholesterol biosynthesis assay; format: functional
[5] = test system: Mus musculus; assay: Compound was tested for inhibitory activity in oral mouse cholesterol biosynthesis assay at the dose of 6 mg/Kg; format: functional

Compound: C=C(CCC12OC(C(=O)OCCC(C)C)C(O)(C(=O)O)C(C(=O)OCc3ccccc3)(O1)[C@H](OC(=O)/C=C/[C@@H](C)C[C@@H](C)CC)[C@H]2O)[C@@H](OC(C)=O)[C@H](C)Cc1ccccc1 (some centres undefined)
- inhibition [1]: inactive

Compound: C=CCOC(=O)C1(O)C(C(=O)OCCC(C)C)OC2(CCC(=C)[C@@H](OC(C)=O)[C@H](C)Cc3ccccc3)OC1(C(=O)O)[C@H](OC(=O)/C=C/[C@@H](C)C[C@@H](C)CC)[C@H]2O (some centres undefined)
- inhibition in vivo at 24 mg/kg [2]: 38%

Compound: C=C(CCC12OC(C(=O)OCCC(C)C)C(O)(C(=O)OCC(=O)N(C)C)C(C(=O)O)(O1)[C@H](OC(=O)/C=C/[C@@H](C)C[C@@H](C)CC)[C@H]2O)[C@@H](OC(C)=O)[C@H](C)Cc1ccccc1 (some centres undefined)
- inhibition in vivo at 24 mg/kg [2]: 12%

Compound: C=C(CCC12OC(C(=O)OCCC(C)C)C(O)(C(=O)OCCCCCCCC)C(C(=O)O)(O1)[C@H](OC(=O)/C=C/[C@@H](C)C[C@@H](C)CC)[C@H]2O)[C@@H](OC(C)=O)[C@H](C)Cc1ccccc1 (some centres undefined)
- inhibition in vivo at 24 mg/kg [2]: 5%

Compound: C=C(CCC12OC(C(=O)OCCC(C)C)C(O)(C(=O)O)C(C(=O)O)(O1)[C@H](OC(=O)/C=C/[C@@H](C)C[C@@H](C)CC)[C@H]2O)[C@@H](OC(C)=O)[C@H](C)Cc1ccccc1 (some centres undefined)
- inhibition in vivo at 40 mg/kg [3]: 61%

Compound: C=C(CCC12OC(C(=O)OCCC(C)C)C(O)(C(=O)OCOC(=O)C(C)(C)C)C(C(=O)O)(O1)[C@H](OC(=O)/C=C/[C@@H](C)C[C@@H](C)CC)[C@H]2O)[C@@H](OC(C)=O)[C@H](C)Cc1ccccc1 (some centres undefined)
- ED50 [4]: 9 mg/kg

Compound: C=C(CCC12OC(C(=O)OCCC(C)C)C(O)(C(=O)OCC)C(C(=O)O)(O1)[C@H](OC(=O)/C=C/[C@@H](C)C[C@@H](C)CC)[C@H]2O)[C@@H](OC(C)=O)[C@H](C)Cc1ccccc1 (some centres undefined)
- inhibition in vivo at 24 mg/kg [2]: 59%

Compound: C=C(CCC12OC(C(=O)OCCC(C)C)C(O)(C(=O)OCOC(C)=O)C(C(=O)O)(O1)[C@H](OC(=O)/C=C/[C@@H](C)C[C@@H](C)CC)[C@H]2O)[C@@H](OC(C)=O)[C@H](C)Cc1ccccc1 (some centres undefined)
- ED50 [4]: 6 mg/kg

Compound: C=C(CCC12OC(C(=O)OCCC(C)C)C(O)(C(=O)O)C(C(=O)OCOC(C)=O)(O1)[C@H](OC(=O)/C=C/[C@@H](C)C[C@@H](C)CC)[C@H]2O)[C@@H](OC(C)=O)[C@H](C)Cc1ccccc1 (some centres undefined)
- inhibition in vivo at 6 mg/kg [5]: 13%

Compound: C=C(CCC12OC(C(=O)OCCC(C)C)C(O)(C(=O)OCC(=O)N(CC)CC)C(C(=O)O)(O1)[C@H](OC(=O)/C=C/[C@@H](C)C[C@@H](C)CC)[C@H]2O)[C@@H](OC(C)=O)[C@H](C)Cc1ccccc1 (some centres undefined)
- inhibition in vivo at 24 mg/kg [2]: 15%

Compound: C=C(CCC12OC(C(=O)OCCC(C)C)C(O)(C(=O)O)C(C(=O)OC)(O1)[C@H](OC(=O)/C=C/[C@@H](C)C[C@@H](C)CC)[C@H]2O)[C@@H](OC(C)=O)[C@H](C)Cc1ccccc1 (some centres undefined)
- inhibition [1]: inactive

Compound: C=C(CCC12OC(C(=O)OCCC(C)C)C(O)(C(=O)OCc3ccccc3)C(C(=O)O)(O1)[C@H](OC(=O)/C=C/[C@@H](C)C[C@@H](C)CC)[C@H]2O)[C@@H](OC(C)=O)[C@H](C)Cc1ccccc1 (some centres undefined)
- inhibition in vivo at 24 mg/kg [2]: 50%

Compound: C=C(CCC12OC(C(=O)OCCC(C)C)C(O)(C(=O)OCCOC)C(C(=O)O)(O1)[C@H](OC(=O)/C=C/[C@@H](C)C[C@@H](C)CC)[C@H]2O)[C@@H](OC(C)=O)[C@H](C)Cc1ccccc1 (some centres undefined)
- inhibition in vivo at 24 mg/kg [2]: 55%

Compound: C=C(CCC12OC(C(=O)OCCC(C)C)C(O)(C(=O)OCC(=O)OC(C)(C)C)C(C(=O)O)(O1)[C@H](OC(=O)/C=C/[C@@H](C)C[C@@H](C)CC)[C@H]2O)[C@@H](OC(C)=O)[C@H](C)Cc1ccccc1 (some centres undefined)
- inhibition [1]: inactive

Compound: C=C(CCC12OC(C(=O)O)C(O)(C(=O)O)C(C(=O)O)(O1)[C@H](OC(=O)/C=C/[C@@H](C)C[C@@H](C)CC)[C@H]2O)[C@@H](OC(C)=O)[C@H](C)Cc1ccccc1 (some centres undefined) [ZARAGOZIC ACID A]
- ED50 [4]: 100 mg/kg

Compound: C=C(CCC12OC(C(=O)OCCC(C)C)C(O)(C(=O)OCC(=O)c3ccc(Br)cc3)C(C(=O)O)(O1)[C@H](OC(=O)/C=C/[C@@H](C)C[C@@H](C)CC)[C@H]2O)[C@@H](OC(C)=O)[C@H](C)Cc1ccccc1 (some centres undefined)
- inhibition in vivo at 24 mg/kg [2]: 7%

Compound: C=C(CCC12OC(C(=O)OCCC(C)C)C(O)(C(=O)OCC(=O)OC)C(C(=O)O)(O1)[C@H](OC(=O)/C=C/[C@@H](C)C[C@@H](C)CC)[C@H]2O)[C@@H](OC(C)=O)[C@H](C)Cc1ccccc1 (some centres undefined)
- inhibition in vivo at 24 mg/kg [2]: 43%

Compound: C=CCOC(=O)C12OC(CCC(=C)[C@@H](OC(C)=O)[C@H](C)Cc3ccccc3)(OC(C(=O)OCCC(C)C)C1(O)C(=O)O)[C@H](O)[C@H]2OC(=O)/C=C/[C@@H](C)C[C@@H](C)CC (some centres undefined)
- inhibition [1]: inactive

Compound: C=C(CCC12OC(C(=O)OCCC(C)C)C(O)(C(=O)OC)C(C(=O)O)(O1)[C@H](OC(=O)/C=C/[C@@H](C)C[C@@H](C)CC)[C@H]2O)[C@@H](OC(C)=O)[C@H](C)Cc1ccccc1 (some centres undefined)
- ED50 [4]: 20 mg/kg
